Assay results: patent publication US6348445B1, “Biologically active peptides with reduced toxicity in animals and a method for preparing same” (priority 1992, dated 2002)
Where a SMILES comes first, the peptide text is derived from it. The star is where a group is joined. Octanoyl = CCCCCCCC(=O)*

Experiments:
Type in all cases: cell-based
[1] = tested on: P. aeruginosa strain ATCC 27853; details: ATCC 27853
From the text: (§1) Table I, which follows, indicates the Minimal Inhibitory Concentration (MIC) in […] of various peptides against S.aureus strain ATCC 25923(S), P. aeruginosa strain ATCC 27853(P), E. coli ATCC strain 25922(E), and C. 4albicans (CA). […] The peptides are unsubstituted at the N-terminal; substituted with an acetyl group at the N-terminal, as indicated by Ac-; substituted with an octanoyl group at the N-terminal, as indicated by Oct-; substituted with spinogosine, as indicated by Sph-; substituted with a succinyl group, as indicated by Suc-; substituted with a hexanoyl group, as indicated by Hex-; substituted with a heptanoyl group, as indicated by Hep-; substituted with a valeryl group, as indicated by Val-; substituted with a myristryl group, as indicated by Myr-; or substituted with an ibuprofyl group, as indicated by Ibu-;
(§2) The procedure for the anti-bacterial assay is based upon the guidelines of the National Committee for Clinical Laboratory Standards, Document M7-T2, Volume 8, No. 8, 1988, which document is entirely incorporated herein by reference.
(§3) Stock solutions of peptides, with and without the appropriate substitutions, were prepared at a concentration of 512 μg/ml in sterile deionized distilled water and stored at −70° C.
(§4) The stock peptide solution was diluted in serial dilutions (1:2) down the wells of a microtiter plate so that the final concentrations of peptides in the wells were 0.25, 0.50, 1, 2, 4, 8, 16, 32, 64, 128 and 256 μg/ml. 1-5×10^5 CFUs/ml of either S. aureus ATCC 25923, E. coli ATCC 25922, P. aeruginosa ATCC 27853, or C. albicans, were added to the wells in full strength Mueller Hinton broth (BBL 11443) from a mid-log culture. The inoculum was standardized spectrophotometrically at 600 nm and was verified by colony counts. The plates were incubated for 16-20 hours at 37° C., and the minimal inhibitory concentration (MIC) for each peptide was determined. Minimal inhibitory concentration is defined as the lowest concentration of peptide which produces a clear well in the microtiter plate. The minimal inhibitory concentration of each of the peptides with and/or without the appropriate substitutions is given in Table I below.
(§5) The in vitro anti-microbial activities of the methane sulfonate derivatives were determined according to the methods described in Examples 1 and 2. The activities against ATCC strains of S. aureus, E. coli, P. aeruginosa, and C. albicans, and the hemolysis of red blood cells were compared to the parent compound (Table IV). The activities for Compound 843 (Oct-SEQ ID NO:143) methane sulfonate against clinical strains of P. aeruginosa isolated from cystic fibrosis patients were compared to the parent compound (Table V). The activity for Compound 469 (Oct-SEQ ID NO:27) methane sulfonate against P. gingivalis was compared to the parent compound (Table VI).

[2] = tested on: E. coli ATCC strain 25922; experiment: Minimal Inhibitory Concentration, microtiter broth dilution; details: ATCC strain 25922
From the text: as §1, §2, §3, §4, §5

[3] = tested on: C. albicans
From the text: as §1, §2, §3, §4

SMILES	Minimal Inhibitory Concentration P [1] [µg/mL]	Minimal Inhibitory Concentration E [2] [µg/mL]	Minimal Inhibitory Concentration CA [3] [µg/mL]
CCCCCCCC(=O)N[C@@H](CCCCN)C(=O)N[C@@H](CC(C)C)C(=O)N[C@@H](CC(C)C)C(=O)N[C@@H](CCCCN)C(=O)N[C@@H](CCCCN)C(=O)N[C@@H](CC(C)C)C(=O)N[C@@H](CCCCN)C(=O)N[C@@H](CCCCN)C(=O)N[C@@H](CC(C)C)C(N)=O [Oct-(SEQ ID NO: 108)-NH2] (Octanoyl-KLLKKLKKL-NH2)	4	64	64
CCCCCCCC(=O)N[C@@H](CCCCN)C(=O)N[C@@H](CCCCN)C(=O)N[C@@H](CC(C)C)C(=O)N[C@@H](CC(C)C)C(=O)N[C@@H](CCCCN)C(=O)N[C@@H](CCCCN)C(=O)N[C@@H](CC(C)C)C(=O)N[C@@H](CCCCN)C(=O)N[C@@H](CCCCN)C(=O)N[C@@H](CC(C)C)C(N)=O [Oct-(SEQ ID NO: 109)-NH2] (Octanoyl-KKLLKKLKKL-NH2)	4	16	32
CCCCCCCC(=O)N[C@@H](CC(C)C)C(=O)N[C@@H](CCCCN)C(=O)N[C@@H](CCCCN)C(=O)N[C@@H](CC(C)C)C(=O)N[C@@H](CC(C)C)C(=O)N[C@@H](CCCCN)C(=O)N[C@@H](CCCCN)C(=O)N[C@@H](CC(C)C)C(=O)N[C@@H](CCCCN)C(=O)N[C@@H](CCCCN)C(=O)N[C@@H](CC(C)C)C(N)=O [Oct-(SEQ ID NO: 110)-NH2] (Octanoyl-LKKLLKKLKKL-NH2)	4	8	32
CCCCCCCC(=O)N[C@@H](C)C(=O)N[C@@H](CCCCN)C(=O)N[C@@H](CCCCN)C(=O)N[C@@H](CC(C)C)C(=O)N[C@@H](CC(C)C)C(=O)N[C@@H](CCCCN)C(=O)N[C@@H](CCCCN)C(=O)N[C@@H](CC(C)C)C(=O)N[C@@H](CCCCN)C(=O)N[C@@H](CCCCN)C(=O)N[C@@H](CC(C)C)C(N)=O [Oct-(SEQ ID NO: 111)-NH2] (Octanoyl-AKKLLKKLKKL-NH2)	8	32	32
CCCCCCCC(=O)N[C@@H](CC(C)C)C(=O)N[C@@H](CC(C)C)C(=O)N[C@@H](CCCCN)C(=O)N[C@@H](CCCCN)C(=O)N[C@@H](CC(C)C)C(=O)N[C@@H](CCCCN)C(=O)N[C@@H](CCCCN)C(=O)N[C@@H](CC(C)C)C(=O)N[C@@H](CC(C)C)C(=O)N[C@@H](CCCCN)C(=O)N[C@@H](CCCCN)C(=O)N[C@@H](CC(C)C)C(N)=O [Oct-(SEQ ID NO: 113)-NH2] (Octanoyl-LLKKLKKLLKKL-NH2)	8	8	128
CCCCCCCC(=O)N[C@@H](CCCCN)C(=O)N[C@@H](Cc1ccccc1)C(=O)N[C@@H](C)C(=O)N[C@@H](CCCCN)C(=O)N[C@@H](CCCCN)C(=O)N[C@@H](Cc1ccccc1)C(=O)N[C@@H](C)C(N)=O [Oct-(SEQ ID NO: 118)-NH2] (Octanoyl-KFAKKFA-NH2)	>256	>256	>256
CCCCCCCC(=O)N[C@@H](CCCCN)C(=O)N[C@H](C(=O)N[C@@H](C)C(=O)N[C@@H](CCCCN)C(=O)N[C@@H](CCCCN)C(=O)N[C@H](C(=O)N[C@@H](C)C(N)=O)[C@@H](C)CC)[C@@H](C)CC [Oct-(SEQ ID NO: 119)-NH2] (Octanoyl-KIAKKIA-NH2)	>256	>256	>256
CCCCCCCC(=O)N[C@@H](CCCNC(=N)N)C(=O)N[C@@H](Cc1ccccc1)C(=O)N[C@@H](C)C(=O)N[C@@H](CCCNC(=N)N)C(=O)N[C@@H](CCCNC(=N)N)C(=O)N[C@@H](Cc1ccccc1)C(=O)N[C@@H](C)C(N)=O [Oct-(SEQ ID NO: 120)-NH2] (Octanoyl-RFARRFA-NH2)	128	256	64
CCCCCCCC(=O)N[C@@H](CCCCN)C(=O)N[C@@H](Cc1ccccc1)C(=O)N[C@@H](C)C(=O)N[C@@H](CCCCN)C(=O)N[C@@H](Cc1ccccc1)C(=O)N[C@@H](C)C(=O)N[C@@H](CCCCN)C(=O)N[C@@H](CCCCN)C(=O)N[C@@H](Cc1ccccc1)C(=O)N[C@@H](C)C(N)=O [Oct-(SEQ ID NO: 121)-NH2] (Octanoyl-KFAKFAKKFA-NH2)	256	256	256
CCCCCCCC(=O)N[C@@H](CCCCN)C(=O)N[C@@H](CCCCN)C(=O)N[C@@H](Cc1ccccc1)C(=O)N[C@@H](C)C(=O)N[C@@H](CCCCN)C(=O)N[C@@H](Cc1ccccc1)C(=O)N[C@@H](C)C(=O)N[C@@H](CCCCN)C(=O)N[C@@H](CCCCN)C(=O)N[C@@H](Cc1ccccc1)C(=O)N[C@@H](C)C(N)=O [Oct-(SEQ ID NO: 122)-NH2] (Octanoyl-KKFAKFAKKFA-NH2)	32	64	64
CCCCCCCC(=O)N[C@@H](CCCCN)C(=O)N[C@@H](Cc1ccccc1)C(=O)N[C@@H](C)C(=O)N[C@@H](CCCCN)C(=O)N[C@@H](CCCCN)C(=O)N[C@@H](Cc1ccccc1)C(=O)N[C@@H](C)C(=O)N[C@@H](CCCCN)C(=O)N[C@@H](Cc1ccccc1)C(=O)N[C@@H](C)C(=O)N[C@@H](CCCCN)C(=O)N[C@@H](CCCCN)C(=O)N[C@@H](Cc1ccccc1)C(=O)N[C@@H](C)C(N)=O [Oct-(SEQ ID NO: 125)-NH2] (Octanoyl-KFAKKFAKFAKKFA-NH2)	8	16	64
CCCCCCCC(=O)N[C@@H](CCCNC(=N)N)C(=O)N[C@@H](Cc1ccccc1)C(=O)N[C@@H](C)C(=O)N[C@@H](CCCNC(=N)N)C(=O)N[C@@H](CCCNC(=N)N)C(=O)N[C@@H](Cc1ccccc1)C(=O)N[C@@H](C)C(=O)N[C@@H](CCCNC(=N)N)C(=O)N[C@@H](Cc1ccccc1)C(=O)N[C@@H](C)C(=O)N[C@@H](CCCNC(=N)N)C(=O)N[C@@H](CCCNC(=N)N)C(=O)N[C@@H](Cc1ccccc1)C(=O)N[C@@H](C)C(N)=O [Oct-(SEQ ID NO: 126)-NH2] (Octanoyl-RFARRFARFARRFA-NH2)	8	8	64
CCCCCCCC(=O)N[C@@H](CCC(=O)O)C(=O)N[C@@H](CCCCN)C(=O)N[C@@H](CCCCN)C(=O)N[C@@H](CC(C)C)C(=O)N[C@@H](CC(C)C)C(=O)N[C@@H](CCCCN)C(=O)N[C@@H](CCCCN)C(=O)N[C@@H](CC(C)C)C(=O)N[C@@H](CCCCN)C(=O)N[C@@H](CCCCN)C(=O)N[C@@H](CC(C)C)C(N)=O [Oct-(SEQ ID NO: 127)-NH2] (Octanoyl-EKKLLKKLKKL-NH2)	32	32	128
CCCCCCCC(=O)N[C@@H](CCCCN)C(=O)N[C@@H](CCCCN)C(=O)N[C@@H](CCCCN)C(=O)N[C@@H](CC(C)C)C(=O)N[C@@H](CC(C)C)C(=O)N[C@@H](CCCCN)C(=O)N[C@@H](CCCCN)C(=O)N[C@@H](CC(C)C)C(=O)N[C@@H](CCCCN)C(=O)N[C@@H](CCCCN)C(=O)N[C@@H](CC(C)C)C(N)=O [Oct-(SEQ ID NO: 128)-NH2] (Octanoyl-KKKLLKKLKKL-NH2)	64	32	32
